In patent US9290464B2 (priority 2010, dated 2016):

Legend:
[1] = test system: MAO-B-deficient human neuroblastoma SH-SY5Y cells; assay: Apoptosis induced by serum starvation in neuroblastoma cells; assay type: cell-based; conditions: serum-free medium, FIG. 9
Procedure: In this embodiment, MAO-B-deficient human neuroblastoma SH-SY5Y cells (Korean Cell Line Bank) were used. Apoptosis of the human neuroblastoma cells was induced by serum starvation. The MAO-B-deficient human neuroblastoma SH-SY5Y cells cultured in a normal medium were distributed into a 6-well plate at a concentration of 1.8×10^5 cells/well and incubated for 1 day, the medium was exchanged with a serum-free medium containing CBI (0.1, 1 and 10), a serum-free medium containing rasagiline (0.1, 1 and 10), or a serum-free medium containing neither CBI or rasagiline, and the cell was further incubated in 5% CO2 at 37° C. for 48 hours.

Bcl-xL = assay: Amount of Bcl-xL protein by western blotting in apoptosis-induced cells; assay type: cell-based, human; conditions: serum-free medium, 24 hours; FIG. 11
Source text: Meanwhile, a variety of signal transduction proteins are involved in a process for mediating or inhibiting apoptosis, and representative examples thereof include Bcl-2 gene family proteins (Journal of Bioenergetics and Biomembranes, 37:179-190 (2005); J. Cell Mol. Med., 7:249-257 (2003); Genes and Development, 13:1899-1911 (1999)). Thus, 0.1, 1 and 10 of CBI or 0.1, 1 and 10 of rasagiline were respectively added to the apoptosis-induced cells as described above, the resulting cells were further incubated in 5% of CO2 at 37° C. for 24 hours, mRNA was extracted from the cultured cells or a cell extract was obtained therefrom, and thus the amount of Bcl-2 mRNA and the amounts of Bcl-2 and Bcl-xL proteins were measured. The amount of Bcl-2 mRNA was measured by real-time RT-PCR, and the amounts of Bcl-2 and Bcl-xL proteins were measured by western blotting.
For western blotting, the SH-SY5Y cells were lysed with RIPA buffer (50 mM Tris-Cl pH 7.4, 1% NP-40, 0.25% sodium deoxycholate, 0.1% SDS, 150 mM NaCl, 1 mM EDTA) and then centrifuged to obtain a cell extract. […]

caspase 3 = assay: Activity of caspase 3/7 (Apo-ONE) in MPP+-treated cells; assay type: cell-based, human; conditions: 2 mM MPP+, 24 hours; CBI 1, 5, 10 and 50 nM, rasagiline 50 nM; FIG. 18
Procedure: SH-SY5Y cells were incubated in a 96-well plate at a concentration of 5×10^5 cells/well under the same conditions as described above, the cells were treated with 2 mM of MPP^+ and CBI (1, 5, 10 and 50 nM) or rasagiline (50 nM), and the resulting cells were incubated for 24 hours. Subsequently, 100 μl of Apo-ONE caspase 3/7 reagent (Promega, G7790) was added thereto and mixed therewith, and the resultant was further incubated for 4 hours. After the incubation was terminated, fluorescence was measured at an excitation wavelength of 495 nm and an emission wavelength of 521 nm by using a fluorescence plate reader (GeminiXPS, Molecular Devices).

GPx = assay: Activity of GPx in striatum and substantia nigra of mouse; assay type: in vivo, C57BL/6 mice; conditions: 1 mg/kg oral for 8 days, no neurotoxin, FIG. 22

SMILES: NC(=O)OCc1cc(-c2ccc(OCc3ccccc3)cc2)no1 [CBI, carbamic acid 3-(4-benzyloxy-phenyl)-isoxazole-5-yl methylester]
- higher extent of a decrease in the apoptosis of neurons than with 10 of rasagiline ([1]; 10 (unit not given), 48 hours): about 33%
- extent of the apoptosis of neurons ([1]; 48 hours, 0.1, 1 and 10 (unit not given)): decreased
- amount of Bcl-xL relative to control (Bcl-xL): larger than that in the control
- activity of caspase 3 (caspase 3): reduced
- increase of the activity of the GPx in substantia nigra (GPx): about 28%
